Assay results published in patent US20260191968A1, “PROTAC DEGRADERS OF MLLT1 AND/OR MLLT3” (DARK BLUE THERAPEUTICS LTD, priority 2024, published 2026).

How the values were obtained:
MLLT1 = target: T1, MLLT1 (Homo sapiens, UniProt Q03111); assay: MLLT1 degradation assay in MV4-11 cells (JESS chemiluminescent detection), three concentrations, 24 h; assay type: cell-based; conditions: with respect to DMSO control
T1 construct: host or cells: MV4-11
T1 sequence (Q03111 1-559): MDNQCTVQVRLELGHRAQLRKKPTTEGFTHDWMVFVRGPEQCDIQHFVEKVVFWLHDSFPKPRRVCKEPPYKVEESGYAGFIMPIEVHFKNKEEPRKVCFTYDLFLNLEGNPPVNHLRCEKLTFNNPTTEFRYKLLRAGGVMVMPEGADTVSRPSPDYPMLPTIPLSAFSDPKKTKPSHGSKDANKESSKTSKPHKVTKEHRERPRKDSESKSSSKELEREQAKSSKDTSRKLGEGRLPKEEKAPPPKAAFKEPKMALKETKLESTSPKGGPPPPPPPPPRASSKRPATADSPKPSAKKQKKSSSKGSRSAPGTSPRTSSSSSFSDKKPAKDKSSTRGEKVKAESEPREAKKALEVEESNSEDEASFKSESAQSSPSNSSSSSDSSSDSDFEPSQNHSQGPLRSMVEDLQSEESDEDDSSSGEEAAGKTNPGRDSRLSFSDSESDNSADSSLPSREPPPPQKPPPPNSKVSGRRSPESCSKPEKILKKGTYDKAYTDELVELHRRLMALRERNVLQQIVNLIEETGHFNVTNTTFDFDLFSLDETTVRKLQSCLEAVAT
In short: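 Read-out is % MLLT1 degradation versus DMSO, from band peak areas on a JESS chemiluminescent system. Cells (MV4-11) were exposed for 24 h at 37° C to three compound levels, 10, 100 and 1000 nM, in 0.1% DMSO.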

MV4-11 cells = assay: MV4-11 cellular proliferative assay, Assay Format B (CTG 2.0, 168 h); assay type: cell-based; conditions: Homo sapiens, 168 h (7 days), CTG 2.0, read-out: IC50 (MV4-11 cellular proliferative assay, Assay format B)
In short: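 Viability read by CellTiter-Glo 2.0 luminescence after 7-day (168 h) compound exposure of MV4-11 cells in IMDM/10% FBS. Ten 3-fold concentrations starting at 1 uM or 100 nM, 0.3% final DMSO; curves normalised to DMSO control, four-parameter fit.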

Compound: CN1CCC[C@@H]1c1[nH]c2cc(NC(=O)c3ccc(CCCCC#Cc4cccc5c4CN(C4CCC(=O)NC4=O)C5=O)cc3F)ncc2c1Cl (stereo partly drawn) [Example 113, N-(3-chloro-2-((R)-1-methylpyrrolidin-2-yl)-1H-pyrrolo[3,2-c]pyridin-6-yl)-4-(6-(2-(2,6-dioxopiperidin-3-yl)-1-oxoisoindolin-4-yl)hex-5-yn-1-yl)-2-fluorobenzamide]
- MLLT1% Degradation @ 0.01 μM (MLLT1): A (Category A: A ≥ 75% degradation)
- MLLT1% Degradation @ 0.1 μM (MLLT1): A (Category A: A ≥ 75% degradation)
- MLLT1% Degradation @ 1 μM (MLLT1): A (Category A: A ≥ 75% degradation)
- IC50 (MV4-11 cells): ≤ 100 nM

Compound: CN1CCC[C@@H]1c1cc2cnc(NC(=O)c3ccc(-c4cnn(CCCC5CCN(c6cccc7c6C(=O)N(C6CCC(=O)NC6=O)C7=O)CC5)c4)cc3F)cc2[nH]1 (stereo partly drawn) [Example 210, 4-(1-(3-(1-(2-(2,6-dioxopiperidin-3-yl)-1,3-dioxoisoindolin-4-yl)piperidin-4-yl)propyl)-1H-pyrazol-4-yl)-2-fluoro-N-(2-((R)-1-methylpyrrolidin-2-yl)-1H-pyrrolo[3,2-c]pyridin-6-yl)benzamide]
- MLLT1% Degradation @ 0.01 μM (MLLT1): B (Category B: 50% ≤ B < 75% degradation)
- MLLT1% Degradation @ 0.1 μM (MLLT1): A (Category A: A ≥ 75% degradation)
- MLLT1% Degradation @ 1 μM (MLLT1): A (Category A: A ≥ 75% degradation)
- IC50 (MV4-11 cells): ≤ 100 nM

Compound: CN1CCC[C@@H]1c1cc2cnc(NC(=O)c3ccc(OC4CCN(CC5CCN(c6cccc7c6CN(C6CCC(=O)NC6=O)C7=O)CC5)CC4)cc3)cc2[nH]1 (stereo in doubt) [Example 122, 4-((1-((1-(2-((rel-S)-2,6-dioxopiperidin-3-yl)-1-oxoisoindolin-4-yl)piperidin-4-yl)methyl)piperidin-4-yl)oxy)-N-(2-((R)-1-methylpyrrolidin-2-yl)-1H-pyrrolo[3,2-c]pyridin-6-yl)benzamide]
- MLLT1% Degradation @ 0.01 μM (MLLT1): A (Category A: A ≥ 75% degradation)
- MLLT1% Degradation @ 0.1 μM (MLLT1): A (Category A: A ≥ 75% degradation)
- MLLT1% Degradation @ 1 μM (MLLT1): A (Category A: A ≥ 75% degradation)
- IC50 (MV4-11 cells): ≤ 100 nM

Compound: CN1CCC[C@@H]1c1cc2cnc(NC(=O)c3cc(F)c(OCCC4CCN(c5cccc6c5CN(C5CCC(=O)NC5=O)C6=O)CC4)cc3F)cc2[nH]1 (stereo partly drawn) [Example 230, 4-(2-(1-(2-(2,6-dioxopiperidin-3-yl)-1-oxoisoindolin-4-yl)piperidin-4-yl)ethoxy)-2,5-difluoro-N-(2-((R)-1-methylpyrrolidin-2-yl)-1H-pyrrolo[3,2-c]pyridin-6-yl)benzamide]
- MLLT1% Degradation @ 0.01 μM (MLLT1): A (Category A: A ≥ 75% degradation)
- MLLT1% Degradation @ 0.1 μM (MLLT1): A (Category A: A ≥ 75% degradation)
- MLLT1% Degradation @ 1 μM (MLLT1): A (Category A: A ≥ 75% degradation)
- IC50 (MV4-11 cells): ≤ 100 nM

Compound: CN1CCC[C@@H]1c1cc2cnc(NC(=O)c3ccc(N4CCC(OCc5ccc(-c6cccc7c6CN(C6CCC(=O)NC6=O)C7=O)cc5)CC4)nc3)cc2[nH]1 (stereo partly drawn) [Example 109, 6-(4-((4-(2-(2,6-dioxopiperidin-3-yl)-1-oxoisoindolin-4-yl)benzyl)oxy)piperidin-1-yl)-N-(2-((R)-1-methylpyrrolidin-2-yl)-1H-pyrrolo[3,2-c]pyridin-6-yl)nicotinamide]
- MLLT1% Degradation @ 0.01 μM (MLLT1): B (Category B: 50% ≤ B < 75% degradation)
- MLLT1% Degradation @ 0.1 μM (MLLT1): A (Category A: A ≥ 75% degradation)
- MLLT1% Degradation @ 1 μM (MLLT1): A (Category A: A ≥ 75% degradation)
- IC50 (MV4-11 cells): ≤ 100 nM

Compound: CN1CCC[C@@H]1c1cc2cnc(NC(=O)c3ccc(OC4CN(CC5CCN(c6ccc7c(c6)C(=O)N(C6CCC(=O)NC6=O)C7=O)CC5)C4)cc3)cc2[nH]1 (stereo partly drawn) [Example 157, 4-((1-((1-(2-(2,6-dioxopiperidin-3-yl)-1,3-dioxoisoindolin-5-yl)piperidin-4-yl)methyl)azetidin-3-yl)oxy)-N-(2-((R)-1-methylpyrrolidin-2-yl)-1H-pyrrolo[3,2-c]pyridin-6-yl)benzamide]
- MLLT1% Degradation @ 0.01 μM (MLLT1): B (Category B: 50% ≤ B < 75% degradation)
- MLLT1% Degradation @ 0.1 μM (MLLT1): A (Category A: A ≥ 75% degradation)
- MLLT1% Degradation @ 1 μM (MLLT1): A (Category A: A ≥ 75% degradation)
- IC50 (MV4-11 cells): ≤ 100 nM

Compound: C[C@@H]1CN(CC2CCN(c3cccc4c3CN(C3CCC(=O)NC3=O)C4=O)CC2)CCN1c1ccc(C(=O)Nc2cc3[nH]c([C@H]4CCCN4C)cc3cn2)cc1 (relative stereo) [Example 135, 4-((R)-4-((1-(2-((rel-S)-2,6-dioxopiperidin-3-yl)-1-oxoisoindolin-4-yl)piperidin-4-yl)methyl)-2-methylpiperazin-1-yl)-N-(2-((R)-1-methylpyrrolidin-2-yl)-1H-pyrrolo[3,2-c]pyridin-6-yl)benzamide]
- MLLT1% Degradation @ 0.01 μM (MLLT1): A (Category A: A ≥ 75% degradation)
- MLLT1% Degradation @ 0.1 μM (MLLT1): A (Category A: A ≥ 75% degradation)
- MLLT1% Degradation @ 1 μM (MLLT1): A (Category A: A ≥ 75% degradation)
- IC50 (MV4-11 cells): ≤ 100 nM

Compound: CN1CCC[C@@H]1c1[nH]c2cc(NC(=O)c3ccc(CCCC#Cc4cccc5c4CN(C4CCC(=O)NC4=O)C5=O)cc3)ncc2c1Cl (stereo partly drawn) [Example 100, N-(3-chloro-2-((R)-1-methylpyrrolidin-2-yl)-1H-pyrrolo[3,2-c]pyridin-6-yl)-4-(5-(2-(2,6-dioxopiperidin-3-yl)-1-oxoisoindolin-4-yl)pent-4-yn-1-yl)benzamide]
- MLLT1% Degradation @ 0.01 μM (MLLT1): A (Category A: A ≥ 75% degradation)
- MLLT1% Degradation @ 0.1 μM (MLLT1): A (Category A: A ≥ 75% degradation)
- MLLT1% Degradation @ 1 μM (MLLT1): A (Category A: A ≥ 75% degradation)
- IC50 (MV4-11 cells): ≤ 100 nM

Compound: CN1CCC[C@@H]1c1cc2cnc(NC(=O)c3ccc(N4CCN(CCC5CCN(c6cccc7c6CN(C6CCC(=O)NC6=O)C7=O)CC5)CC4)nc3)cc2[nH]1 (stereo partly drawn) [Example 193, 6-(4-(2-(1-(2-(2,6-dioxopiperidin-3-yl)-1-oxoisoindolin-4-yl)piperidin-4-yl)ethyl)piperazin-1-yl)-N-(2-((R)-1-methylpyrrolidin-2-yl)-1H-pyrrolo[3,2-c]pyridin-6-yl)nicotinamide]
- MLLT1% Degradation @ 0.01 μM (MLLT1): A (Category A: A ≥ 75% degradation)
- MLLT1% Degradation @ 0.1 μM (MLLT1): A (Category A: A ≥ 75% degradation)
- MLLT1% Degradation @ 1 μM (MLLT1): B (Category B: 50% ≤ B < 75% degradation)
- IC50 (MV4-11 cells): ≤ 100 nM

Compound: CN1CCC[C@@H]1c1cc2cnc(NC(=O)c3ccc(OCCC4CCN(c5cccc6c5CN(C5CCC(=O)NC5=O)C6=O)CC4)nc3)cc2[nH]1 (stereo partly drawn) [Example 158, 6-(2-(1-(2-(2,6-dioxopiperidin-3-yl)-1-oxoisoindolin-4-yl)piperidin-4-yl)ethoxy)-N-(2-((R)-1-methylpyrrolidin-2-yl)-1H-pyrrolo[3,2-c]pyridin-6-yl)nicotinamide]
- MLLT1% Degradation @ 0.01 μM (MLLT1): A (Category A: A ≥ 75% degradation)
- MLLT1% Degradation @ 0.1 μM (MLLT1): A (Category A: A ≥ 75% degradation)
- MLLT1% Degradation @ 1 μM (MLLT1): A (Category A: A ≥ 75% degradation)
- IC50 (MV4-11 cells): ≤ 100 nM
